From patent US5473074A, “Adenosine diphosphoribose polymerase binding nitroso aromatic compounds useful as retroviral inactivating agents, anti-retroviral agents and anti-tumor agents-54” (priority 1992, dated 1995)

Key:
L1210 murine leukemia = L1210 murine leukemia in vivo in BDF mice; parameters: species or system mouse; conditions: 2 mg/kg i.p. twice a day
[1] = test system: normal cells (neutrophil leukocytes and bone marrow or peripheral blood stem cells); test: Functions/viability of normal cells in absence or presence of compounds
Protocol: Experiments were performed in which the functions of various cancer cells (855-2 and HL-60 leukemia cells, D32, D37 and CRL 7712 glioblastoma cell lines, 186 medulla tumor cell line, L1210 murine leukemia cell line, MDA-468 human breast tumor cell line) and normal cells (neutrophil leukocytes and bone marrow or peripheral blood stream cells) were assessed in the absence or presence of the compounds.

[2] = test system: human leukemia cell lines (855-2, H9, HL-60, K562); test: [3H]thymidine uptake, human leukemia cell lines (FIG. 2); format: cell-based
Protocol: FIGS. 2A-2F are composite of graphs displaying the inhibitory effects of the ADRPT ligands on (FIG. 2A) 855-2 cells (a cell line of human B-cell lineage acute lymphoblastic leukemia), (FIG. 2B) H9 cells (a cell line of human T-cell lineage acute lymphoblastic leukemia), (FIG. 2C) HL-60 cells (a cell line of human acute nonlymphoblastic leukemia) and (FIG. 2D) K562 cells (a cell line of human chronic myelogenous leukemia). These cells were cultured while under the influence of the growth factors in 10% fetal bovine serum (FCS), whereas in (FIG. 2E) and (FIG. 2F) the 855-2 cells were cultured in the presence of autocrine growth factor activity (AGF) or low molecular weight-B-cell growth factor (BCGF, a T-cell derived lymphokine), respectively.

cells / HIV = test: Anti-tumor / anti-HIV (biological) action, general statement
[3] = PHA-PBL viability (MTT dye reduction); format: cell-based; conditions: human, read-out: concentration tolerated by human lymphocytes without major changes in cell metabolism
Protocol: PHA-PBL (10^6 /ml) were treated with increasing doses of NOBA for 24 hours in the presence of MTT substrate and the relative absorbance at 550 nm reflects the metabolic activity of the cells. The level of product formation in the absence of NOBA was considered to be 100% and all experimental values were normalized to that control value.
Experiments were performed in which the incubations with NOBA was carried out at 0°, 22°, and 37° C. […] In agreement with the negligible cytotoxic effect of C-nitroso drugs on non-tumor cells described elsewhere in this application, human lymphocytes tolerated NOBA up to 50 μM without major changes in cell metabolism, which was assayed by quantitative dye reduction as described in Mosaran, J. Imm. Methods 65:55-63 (1983).

[4] = biological target: Zn(HIV1-F1), N-terminal CCHC zinc finger of the HIV-1 NC protein (Human immunodeficiency virus type 1 lw12.3 isolate, UniProt Q70622); test: NMR studies of zinc ejection from Zn(HIV1-F1); format: biochemical; conditions: 2 mM NOBA
Protocol: The * and + symbols denote the aromatic proton signals of the zinc-coordinated and zinc-free His 9 residue. Upon completion of the reaction, reflected by complete ejection of zinc (t=90 min), 50% of the NOBA remained unreacted indicating a 1:1 reaction stoichiometry. NOBA (3-nitrosobenzamide), was synthesized described elsewhere in this application.
To determine if NOBA is capable of ejecting zinc from retroviral-type zinc fingers, NMR studies were performed on a peptide with amino acid sequence corresponding to the N-terminal CCHC zinc finger of the HIV-1 NC protein, Zn(HIV1-F1), South, et al., J. Am. Chem. Soc. 111:395-396 (1989), South, et al., Biochem Pharm. 40:123-129 (1990), Summers, et al., Biochemistry 29:329-340 (1990). NMR spectra of Zn(HIV-F1) were performed before and after the addition of NOBA (3-nitrosobenzamide). […] Chem Soc. 111:395-396 (1989), and three-dimensional structural studies have shown that the peptide adopts a structure that is essentially identical to the structure of the corresponding region in the intact NC protein, South, et al., Biochemistry 29:7786-7789 (1990). The down-field region of the ^1 H NMR spectrum showing the signals due to the aromatic proton of His 9 and Phe 2 is illustrated in FIG. 10 (bottom). […]

855-2 cells [5] = test: MTT assay, cytocidal activity; format: cell-based, human; conditions: 10 μM, 100,000 cells/ml
Protocol: MTT (3-[4,5-[…]]-2,5-diphenyltetrazolium bromide) at 1 mg/ml was then added for 16 hours. The absorbance of the pelleted cell was then measured at 550 nm after adding DMSO to solubilze the cells.

[6] = test system: human peripheral blood neutrophil leukocytes; test: Superoxide generation by human neutrophils
[7] = test system: normal rhesus bone marrow stem cells; test: CFU stem cell toxicity assay, FIG. 5A; conditions: 10 μM
H9 cells = test: [3H]thymidine uptake, H9 cells; format: cell-based, human; conditions: 10% FCS
855-2 cells [8] = test: Colony formation (CFU) in semi-solid medium, 855-2; format: cell-based, human; conditions: single cells in semi-solid medium

## NC(=O)c1cccc(N=O)c1 [NOBA, 3-nitrosobenzamide]
L1210 murine leukemia; 6 consecutive days, untreated 10 days, 35 days = end of observation
  life span of L1210-bearing BDF mice: 35 days
L1210 murine leukemia; 6 days
  in vivo chemotherapeutic response, in words: highly significant in vivo chemotherapeutic response
  toxic effects in mice: no toxic effects
[1]; anti-leukemic doses, soft agar, rhesus bone marrow or human peripheral blood stem cells
  effect on normal stem cell colony formation (FIG. 5), in words: minimal effect on normal cells
[1]; tumor cell inhibitory concentrations
  effect on viability of normal cells, in words: not to affect adversely the viability of normal cells
[2]; 10 μM, 855-2, H9, HL-60, K562 cells
  inhibition of 3H-thymidine uptake, in words: powerfully inhibited 3H-thymidine uptake
[2]; each of the cell lines tested
  molar concentrations needed to inhibit 3H-thymidine uptake, in words: able to inhibit 3H-thymidine uptake in lower molar concentrations than the other compounds
Cells / HIV
  anti-tumor and anti-HIV activity, in words: highly active as anti-tumor and anti-HIV molecules
Cells / HIV; exposure as short as 30 minutes
  effectiveness after short exposure of cells: effective even after exposure of cells for a period as short as 30 minutes
[3]
  MNTC at 24 h: ≥ 50 µM
[4]; 1 mM Zn(HIV1-F1), D2O, pH* 6.2, 30° C.
  time of complete ejection of zinc from Zn(HIV1-F1): 90 min
[4]; 90 min
  NOBA remaining unreacted: 50%
855-2 cells [5]
  killing of 855-2 cells (MTT), in words: complete killing
[6]; 10 μM, 10^5 PMN + PMA (control 55.9 ± 7.7)
  superoxide generation by human neutrophils (mean + S.D., n = 11): 44.4 ± 10.0 nmol O2^- /hr/10^5 cells
[6]; 10 μm
  superoxide generation, in words: Only minor reductions in superoxide generation
[7]
  CFU stem cell toxicity, in words: non-toxic
H9 cells; 250 μM
  inhibition of thymidine uptake, H9: almost complete inhibition
H9 cells; Homo sapiens, H9, 10 μM
  inhibition at 10 µM: ~75%
H9 cells; Homo sapiens, H9, 100 μM
  inhibition at 100 µM: ~85%
855-2 cells [8]
  colony formation, 855-2, in words: inhibit the ability of human leukemic cells (855-2 and HL-60) to form colonies
